Results reported in ChEMBL document CHEMBL3120106, “Novel compounds lowering the cellular isoform of the human prion protein in cultured human cells” (Bioorg Med Chem, 2014).
Activity calls are given as the source filed them. No cut-off for these calls is given here.

Columns and labels:
[1] = Cmax in CD-1 mouse brain at 10 mg/kg, ip administered as single dose by LC/MS/MS analysis; assay type: ADME, organism-based; design: dose 10 mg/kg, route intraperitoneal
[2] = Cmax in CD-1 mouse brain at 10 mg/kg, po administered via gavage as single dose by LC/MS/MS analysis; assay type: ADME, organism-based; design: dose 10 mg/kg, route oral
[3] = Cmax in CD-1 mouse plasma at 10 mg/kg, po administered via gavage as single dose by LC/MS/MS analysis; assay type: ADME, organism-based; design: dose 10 mg/kg, route oral
T98G [4] = assay: cells; settings: Homo sapiens, 48 h
[5] = Metabolic stability in mouse liver microsomes assessed as compound remaining at 1 uM after 60 mins by LC/MS/MS analysis; assay type: ADME, Microsome; settings: 1 h
[6] = Half life in mouse liver microsomes at 1 uM by LC/MS/MS analysis; assay type: ADME, Microsome
Liver microsome [7] = assay: Metabolic stability in human liver microsomes assessed as compound remaining at 1 uM after 60 mins by LC/MS/MS analysis; assay type: ADME; settings: 1 h
Liver microsome [8] = assay: Half life in human liver microsomes at 1 uM by LC/MS/MS analysis; assay type: ADME
T98G [9] = assay: Cytotoxicity against human T98G cells assessed as decrease in cell viability after 2 days by calcein AM assay; assay type: cell-based; settings: 48 h, read-out: LC50 (the source's name)
[10] = Decrease in PrPc expression on mouse N2a-cl3 cell surface after 2 days by ELISA; assay type: functional, cell-based
[11] = Cytotoxicity against mouse N2a-cl3 cells assessed as cell viability after 2 days by calcein AM assay; assay type: cell-based; settings: n2a-cl3, 48 h

In the case of `Cc1nc2sccn2c1-c1csc(Nc2ccc(N(C)C)nc2)n1`, the Cmax [1] is reported as ≤ 16200 nM, the Cmax [2] is reported as < 100 nM and the Cmax [3] is reported as < 100 nM. The EC50 (T98G [4]) was 220 nM.

Work on `COc1ccc(Cl)cc1C(=O)N1CCN(c2cccc(Cl)c2)CC1` yielded a Stability [5] of 0.1%, a t1/2 [6] of 3 min and a Stability (Liver microsome [7]) of 0.1%. For the same compound, the Cmax [1] was ≤ 16200 nM, the Cmax [2] was < 100 nM and the Cmax [3] was < 100 nM. It also gave an EC50 (T98G [4]) of 170 nM and a t1/2 (Liver microsome [8]) of 6 min.

In the case of `CCOC(=O)c1[nH]c2c(c1C)C(=O)CC(c1ccccc1)C2` (centres undefined), the Cmax [1] is reported as ≤ 16200 nM, the Cmax [2] is reported as < 100 nM and the Cmax [3] is reported as < 100 nM. The EC50 (T98G [4]) was 110 nM.

`COc1cccc(N2CCN(C(=O)c3cc(C)ccc3OC)CC2)c1` showed a Stability [5] of 0%, a t1/2 [6] of 1.6 min and a Stability (Liver microsome [7]) of 1%. For the same compound, the Cmax [1] was ≤ 16200 nM, the Cmax [2] was < 100 nM and the Cmax [3] was < 100 nM. The EC50 (T98G [4]) was 270 nM and the t1/2 (Liver microsome [8]) was 4.5 min.

In the case of `COc1ccc(CC(=O)NCc2ccccc2)cc1`, the EC50 (T98G [4]) is reported as 3130 nM and the CC50 (T98G [9]) is reported as > 10000 nM.

With `Cc1cc(C)c(S(=O)(=O)NCc2ccncc2)c(C)c1` the Cmax [1] was ≤ 16200 nM, the Cmax [2] was < 100 nM and the Cmax [3] was < 100 nM. The EC50 (T98G [4]) was 4130 nM.

`Cc1ccn2c(-c3csc(Nc4ccc(N(C)C)cc4)n3)c(C)nc2c1` showed an EC50 (T98G [4]) of 110 nM.

For `CCN(CC)c1ccc2c(c1)OC(N)=C(C#N)C2c1ccccc1` (centres undefined), the Cmax [1] was ≤ 16200 nM, the Cmax [2] was < 100 nM and the Cmax [3] was < 100 nM. For the same compound, the EC50 (T98G [4]) was 170 nM.

For `CCOC(=O)c1[nH]c2c(c1C)C(=O)CC(c1ccccc1Cl)C2` (centres undefined), the Cmax [1] was ≤ 16200 nM, the Cmax [2] was < 100 nM and the Cmax [3] was < 100 nM. It also gave an EC50 (T98G [4]) of 450 nM.

In the case of `CC1=CC(C)(C)N(S(=O)(=O)c2ccc(C)cc2)c2cc(C)ccc21`, the Cmax [1] is reported as ≤ 16200 nM, the Cmax [2] is reported as < 100 nM and the Cmax [3] is reported as < 100 nM. The EC50 (T98G [4]) was 3770 nM.

For `O=C(Cc1ccc(Cl)cc1)NCc1ccccc1`, the EC50 (T98G [4]) was > 10000 nM and the CC50 (T98G [9]) was > 10000 nM.

In the case of `CCOC(=O)c1[nH]c(C)c(C(=O)c2ccc(C)cc2)c1C`, the Cmax [1] is reported as ≤ 16200 nM, the Cmax [2] is reported as < 100 nM and the Cmax [3] is reported as < 100 nM. It also gave an EC50 (T98G [4]) of 530 nM.

In the case of `CCOc1ccc2c(c1)C(C)=CC(C)(C)N2S(=O)(=O)c1ccc(C)cc1`, the Cmax [1] is reported as ≤ 16200 nM, the Cmax [2] is reported as < 100 nM and the Cmax [3] is reported as < 100 nM. It also gave an EC50 (T98G [4]) of 690 nM.

For `Cc1nc2ncccn2c1-c1csc(Nc2ccc(Cl)cc2)n1`, the EC50 (T98G [4]) was 2440 nM.

With `COc1ccc(Cl)cc1NS(=O)(=O)c1ccc(N2CCCC2=O)cc1` the Cmax [1] was ≤ 16200 nM, the Cmax [2] was < 100 nM and the Cmax [3] was < 100 nM. The EC50 (T98G [4]) was 510 nM.

For `O=C(Cc1ccc(-c2ccccc2)cc1)NCc1ccccc1`, the Stability [5] was 5.8%, the t1/2 [6] was 18.5 min and the Stability (Liver microsome [7]) was 4.6%. For the same compound, the Cmax [1] was ≤ 16200 nM, the Cmax [2] was < 100 nM and the Cmax [3] was < 100 nM. The EC50 (T98G [4]) was 440 nM, the CC50 (T98G [9]) was > 10000 nM and the t1/2 (Liver microsome [8]) was 10.3 min.

In the case of `COc1ccc(Cl)cc1C(=O)N1CC(=O)Nc2ccccc21`, the Cmax [1] is reported as ≤ 16200 nM, the Cmax [2] is reported as < 100 nM and the Cmax [3] is reported as < 100 nM. For the same compound, the EC50 (T98G [4]) was 650 nM.

With `NC(=O)c1ccccc1NC(=O)c1cccnc1N1CCCCC1` the Stability [5] was 0%, the t1/2 [6] was 2.8 min and the Stability (Liver microsome [7]) was 8.3%. The Cmax [1] was ≤ 16200 nM, the inhibition [10] was “Active” and the Cmax [2] was < 100 nM. The Cmax [3] was < 100 nM, the Activity [11] was “Non-toxic” and the EC50 (T98G [4]) was 1020 nM. The t1/2 (Liver microsome [8]) was 16.7 min.

For `N#Cc1c(NC(=O)CCc2cccs2)sc2c1CCCC2`, the Cmax [1] was ≤ 16200 nM, the Cmax [2] was < 100 nM and the Cmax [3] was < 100 nM. For the same compound, the EC50 (T98G [4]) was 150 nM.

With `CN(C)c1ccc2c(c1)OC(N)=C(C#N)C2c1cccc(F)c1` (centres undefined) the Cmax [1] was ≤ 16200 nM, the Cmax [2] was < 100 nM and the Cmax [3] was < 100 nM. The EC50 (T98G [4]) was 30 nM.

Work on `CCOc1ccccc1C1C(C#N)=C(N)Oc2cc(N(C)C)ccc21` (centres undefined) yielded a Stability [5] of 0.1%, a t1/2 [6] of 1.9 min and a Stability (Liver microsome [7]) of 1.3%. For the same compound, the Cmax [1] was ≤ 16200 nM, the Cmax [2] was < 100 nM and the Cmax [3] was < 100 nM. The t1/2 (Liver microsome [8]) was 9.7 min.

For `O=C(Nc1ccc(I)cn1)c1cccc(F)c1`, the Cmax [1] was ≤ 16200 nM, the Cmax [2] was < 100 nM and the Cmax [3] was < 100 nM. It also gave an EC50 (T98G [4]) of 450 nM.

With `CCOC(=O)c1[nH]c2c(c1C)C(=O)CC(c1ccco1)C2` (centres undefined) the inhibition [10] was “Active”, the Activity [11] was “Non-toxic” and the EC50 (T98G [4]) was 680 nM.

`Cc1c(C(=O)OC(C)C)[nH]c2c1C(=O)CC(c1cccs1)C2` (centres undefined) gave a Stability [5] of 0.1%, a t1/2 [6] of 3.2 min and a Stability (Liver microsome [7]) of 1.6%. The Cmax [1] was ≤ 16200 nM, the Cmax [2] was < 100 nM and the Cmax [3] was < 100 nM. For the same compound, the EC50 (T98G [4]) was 240 nM and the t1/2 (Liver microsome [8]) was 9.9 min.

In the case of `COc1ccc(S(=O)(=O)N2CCOc3ccccc32)cc1`, the Stability [5] is reported as 0%, the t1/2 [6] is reported as 0.7 min and the Stability (Liver microsome [7]) is reported as 0%. For the same compound, the Cmax [1] was ≤ 16200 nM, the Cmax [2] was < 100 nM and the Cmax [3] was < 100 nM. The EC50 (T98G [4]) was 1320 nM and the t1/2 (Liver microsome [8]) was 2 min.

With `COc1cc(C(=O)c2cc(Cl)ccc2N)cc(OC)c1OC` the Cmax [1] was ≤ 16200 nM, the Cmax [2] was < 100 nM and the Cmax [3] was < 100 nM. It also gave an EC50 (T98G [4]) of 90 nM.

In the case of `O=C(Nc1ccncc1)C1CCCN1S(=O)(=O)c1ccc2ccccc2c1` (centres undefined), the Cmax [1] is reported as ≤ 16200 nM, the Cmax [2] is reported as < 100 nM and the Cmax [3] is reported as < 100 nM. It also gave an EC50 (T98G [4]) of 1520 nM.

`CCOc1ccc(Nc2nc(-c3c(C)nc4sccn34)cs2)cc1` gave a Stability [5] of 0.5%, a t1/2 [6] of 4.5 min and a Stability (Liver microsome [7]) of 1.5%. For the same compound, the Cmax [1] was ≤ 16200 nM, the Cmax [2] was < 100 nM and the Cmax [3] was < 100 nM. It also gave an EC50 (T98G [4]) of 30 nM and a t1/2 (Liver microsome [8]) of 9.6 min.

For `COc1cc(OC)cc(C(=O)Nc2ccc(I)cn2)c1`, the Cmax [1] was ≤ 16200 nM, the inhibition [10] was “Active” and the Cmax [2] was < 100 nM. For the same compound, the Cmax [3] was < 100 nM, the Activity [11] was “Non-toxic” and the EC50 (T98G [4]) was 1310 nM.

With `COC(=O)c1[nH]c2c(c1C)C(=O)CC(c1cccs1)C2` (centres undefined) the Cmax [1] was ≤ 16200 nM, the Cmax [2] was < 100 nM and the Cmax [3] was < 100 nM. It also gave an EC50 (T98G [4]) of 410 nM.

With `O=C(Cc1ccc(Br)cc1)NCc1ccccc1` the EC50 (T98G [4]) was 2330 nM and the CC50 (T98G [9]) was > 10000 nM.

In the case of `COc1ccccc1C(=O)N1CCN(c2ccccc2OC)CC1`, the Cmax [1] is reported as ≤ 16200 nM, the Cmax [2] is reported as < 100 nM and the Cmax [3] is reported as < 100 nM. The EC50 (T98G [4]) was 3240 nM.

`CN(C)c1ccc2c(c1)OC(N)=C(C#N)C2c1cccs1` (centres undefined) showed an EC50 (T98G [4]) of 220 nM.

In the case of `CN(C)c1ccc2c(c1)OC(N)=C(C#N)C2c1ccccc1` (centres undefined), the Cmax [1] is reported as ≤ 16200 nM, the Cmax [2] is reported as < 100 nM and the Cmax [3] is reported as < 100 nM.

With `CCc1nnc(NC(=O)c2ccoc2COc2ccccc2)s1` the Cmax [1] was ≤ 16200 nM, the Cmax [2] was < 100 nM and the Cmax [3] was < 100 nM. It also gave an EC50 (T98G [4]) of 2240 nM.
